Here are results for 48 molecules from patent publication US8685974B2 (Bayer CropScience AG, priority 2009, dated 2014).

What is called chromatographic logP is a lipophilicity value derived from retention on a column.

For one series, the system named is Alternaria solani. The series can be described thus: Alternaria test (tomato) / protective. The class given is in vivo. As to conditions: 500 ppm active compound, protective spray, evaluated 7 days after inoculation. The method in brief:
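Efficacy scored 7 days after inoculation, where 100% means no infection and 0% matches the untreated control. Test plants were young tomatoes given a protective spray at the stated rate, compound dissolved in DMF plus emulsifier and diluted with water. Incubation at 20° C, 96% relative humidity.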

The subject of a further series is Leptosphaeria nodorum. Kind of series: Leptosphaeria nodorum test (wheat) / protective. The class given is in vivo. As to conditions: 500 ppm active compound, protective spray, evaluated 7-9 days after inoculation. The procedure: Leptosphaeria nodorum Test (Wheat)/Protective
Solvent: 49 parts by weight of N,N-dimethylformamide
Emulsifier: 1 part by weight of alkylaryl polyglycol ether
To produce a suitable preparation of active compound, 1 part by weight of active compound is mixed with the stated amounts of solvent and emulsifier, and the concentrate is diluted with water to the desired concentration.
To test for protective activity, young wheat plants are sprayed with the preparation of active compound at the stated application rate. […] The plants are then placed in a greenhouse at 90% rel. atmospheric humidity and a temperature of 22° C.
Evaluation is carried out 7-9 days after the inoculation. 0% means an efficacy which corresponds to that of the control, whereas an efficacy of 100% means that no infection is observed.

The test system of another series is Fusarium graminearum. The series is classed as cell-based. The conditions noted are these: 50 μM; for % Inhibition of DON/AcDON at 50 μM: 7 days at 28° C.

Where two headings read alike, the source gives them in different places. Marks after values point to notes of the source that are not given here.

Take `CC(=O)Nc1cc(-c2cn(CC(C)C)nc2-c2ccc(Cl)s2)cc[n+]1[O-]` [Example 80]: the efficacy in the series on Alternaria solani was found to be 94%; in the series on Leptosphaeria nodorum it was 70%. Further, under “pH 2.3”, the log p was 2.86^[a].

Regarding `CC(C)Cn1cc(-c2ccnc(N)n2)c(-c2ccc(Cl)s2)n1` [Example 95], the efficacy in the series with Alternaria solani worked out at 70%; with Leptosphaeria nodorum it was 80%. Further, the log p (pH 2.3) is 2.35^[a].

In the series on Alternaria solani, `FC(F)Cn1cc(-c2ccncc2)c(-c2ccc(Br)s2)n1` [Example 384] returned an efficacy of 94%. The molecule also registered an efficacy with Leptosphaeria nodorum of 90%. Also, in the series with Fusarium graminearum, the “% Inhibition of fungal growth at 50 μM” value was 100% and the “% Inhibition of DON/AcDON at 50 μM” value was found to be 99%. Where the note is “pH 2.7”, the log p is 1.67^[b] and the “logP value of the minor isomer” value is given as “(1.51)”.

Molecule `FCCn1cc(-c2ccncc2)c(-c2ccc(Br)s2)n1` [Example 388] had an efficacy in the series with Alternaria solani of 100%. Besides, the efficacy in the series with Leptosphaeria nodorum is reported as 80%. Further, in the series on Fusarium graminearum, the “% Inhibition of fungal growth at 50 μM” value is listed as 100% and the “% Inhibition of DON/AcDON at 50 μM” value is 99%. For the setting “pH 2.7”, the log p was 1.49^[b] and the “logP value of the minor isomer” value is reported as “(1.34)”.

In turn, `CCC(C)n1cc(-c2ccnc(Cl)c2)c(-c2ccc(Cl)s2)n1` (stereo not shown) [Example 318] returned an efficacy with Leptosphaeria nodorum of 70%. For the same molecule, the log p (pH 2.7) was 4.89^[b].

`CCC(CC)n1cc(-c2ccncc2)c(-c2ccc(Br)s2)n1` [Example 392] came in with an efficacy in the series with Alternaria solani of 100%. For the same molecule, the efficacy in the series on Leptosphaeria nodorum came out at 70%. Also, in the series with Fusarium graminearum, the “% Inhibition of fungal growth at 50 μM” value was 97% and the “% Inhibition of DON/AcDON at 50 μM” value was 99%. Where the note is “pH 2.7”, the log p is 2.39^[b] and the “logP value of the minor isomer” value is given as “(2.22)”.

`CCC(C)n1nc(-c2ccc(Cl)s2)c(-c2ccncc2)c1SC` (stereo not shown) [4-[3-(5-Chloro-2-thienyl)-5-methylsulfanyl-1-secbutyl-1H-pyrazol-4-yl]pyridine] had a log p in “physchem” (pH 2.7) of 3.35.

`CCCn1cc(I)c(-c2cc(C)cs2)n1` [4-Iodo-3-(4-methyl-2-thienyl)-1-propyl-1H-pyrazole] gave a log p in “physchem” (pH 2.7) of 4.2.

On to `CC#Cc1[nH]nc(-c2ccc(Cl)s2)c1-c1ccncc1` [4-[3-(5-Chloro-2-thienyl)-5-(prop-1-yn-1-yl)-1H-pyrazol-4-yl]pyridine], for which the log p in the series “physchem” (pH 2.7) was determined as 1.44.

`CC(C)Cn1cc(-c2cc(N)ncn2)c(-c2ccc(Cl)s2)n1` [6-[3-(5-chloro-2-thienyl)-1-isobutyl-1H-pyrazol-4-yl]pyrimidin-4-amine]: the log p in the series “physchem” (pH 2.7) worked out at 1.97.

Regarding `CC(C)n1nccc1-c1cc(Br)cs1` [5-(4-Bromo-2-thienyl)-1-isopropyl-1H-pyrazole], the log p in “physchem” (pH 2.7) was determined as 3.44.

In “physchem” (pH 2.7), `CCCc1nn(C)c(-c2sccc2C)c1I` [4-Iodo-1-methyl-5-(3-methyl-2-thienyl)-3-propyl-1H-pyrazole] came in with a log p of 4.27.

With `CN(C)C=C(C(=O)c1ccc(Cl)s1)c1ccncc1` [1-(5-chloro-2-thienyl)-3-(dimethylamino)-2-(pyridin-4-yl)prop-2-en-1-one], in the series “physchem” (pH 2.7), the log p turned out to be 1.07.

Consider `COc1ccc(Cn2cc(-c3ccncc3)c(-c3ccc(Cl)s3)n2)cc1` [Example 104], for which, in the series with Leptosphaeria nodorum, the efficacy came to 80%. Under “pH 2.7”, the log p is 2.74^[b].

`CN(C)C=CC(=O)c1cc(Br)cs1` [1-(4-Bromo-2-thienyl)-3-(dimethylamino)prop-2-en-1-one] showed a log p in “physchem” (pH 2.7) of 1.94.

`CC(C)n1nccc1-c1cccs1` [1-Isopropyl-5-(2-thienyl)-1H-pyrazole]: the log p in the series “physchem” (pH 2.7) was found to be 2.69.

In the case of `CC(=O)N(C(C)=O)c1cc(-c2cn(C(C)C)nc2-c2ccc(Cl)s2)ccn1` [N-Acetyl-N-{4-[3-(5-chloro-2-thienyl)-1-isopropyl-1H-pyrazol-4-yl]pyridin-2-yl}acetamide], the log p in the series “physchem” (pH 2.7) stood at 3.33.

In “physchem” (pH 2.7), `CCC(C)n1cc(I)c(-c2cccs2)n1` (stereo not shown) [1-sec-Butyl-4-iodo-3-(2-thienyl)-1H-pyrazole] registered a log p of 4.12.

Molecule `CCCc1cc(-c2cccs2)n(C)n1` [1-Methyl-3-propyl-5-(2-thienyl)-1H-pyrazole] returned a log p in “physchem” (pH 2.7) of 2.9.

As for `Cc1csc(-c2ccnn2C(C)C)c1` [1-Isopropyl-5-(4-methyl-2-thienyl)-1H-pyrazole], in the series “physchem” (pH 2.7), the log p amounted to 3.18.

In “physchem” (pH 2.7), `Clc1cc(-c2c[nH]nc2-c2ccc(Cl)s2)ccn1` [2-Chloro-4-[3-(5-chloro-2-thienyl)-1H-pyrazol-4-yl]pyridine] displayed a log p of 2.75.

Consider `Clc1csc(-c2n[nH]cc2I)c1` [3-(4-chloro-2-thienyl)-4-iodo-1H-pyrazole], for which the log p in the series “physchem” (pH 2.7) amounted to 2.68.

In the series “physchem” (pH 2.7), `CC(C)n1ncc(-c2ccncc2)c1-c1ccc(F)s1` [4-[1-Isopropyl-5-(5-fluoro-2-thienyl)-1H-pyrazol-4-yl]pyridine] had a log p of 1.51.

Molecule `CCn1ccc(-c2cc(C)cs2)n1` [1-Ethyl-3-(4-methyl-2-thienyl)-1H-pyrazole] gave a log p in “physchem” (pH 2.7) of 2.64.

For `CSc1ccc(-c2nn(C(C)C)cc2-c2ccncc2)s1` [4-[1-Isopropyl-3-(5-methylsulfanyl-2-thienyl)-1H-pyrazol-4-yl]pyridine], in the series “physchem” (pH 2.7), the log p was determined as 1.79.

In the series “physchem” (pH 2.7), `CC(C)Cn1cc(-c2ccncc2)c(-c2ccc(Br)s2)n1` [4-[1-isobutyl-3-(5-bromo-2-thienyl)-1H-pyrazol-4-yl]pyridine] came in with a log p of 2.04.

With `O=C(Cc1ccnc(Cl)c1)c1ccc(Cl)s1` [1-(5-chloro-2-thienyl)-2-(2-chloropyridin-4-yl)ethanone], the log p in the series “physchem” (pH 2.7) is 2.94.

Molecule `CCCc1cc(-c2sccc2C)nn1C` [1-Methyl-3-(3-methyl-2-thienyl)-5-propyl-1H-pyrazole] came in with a log p in the series “physchem” (pH 2.7) of 3.34.

Consider `CC(C)Cn1cc(-c2ccnc(N(C(=O)C3CC3)C(=O)C3CC3)c2)c(-c2ccc(Cl)s2)n1` [N-{4-[3-(5-chloro-2-thienyl)-1-isobutyl-1H-pyrazol-4-yl]pyridin-2-yl}-N-(cyclopropylcarbonyl)cyclopropanecarboxamide], for which the log p in “physchem” (pH 2.7) worked out at 4.75.

Consider `Clc1csc(-c2cc[nH]n2)c1` [3-(4-Chloro-2-thienyl)-1H-pyrazole], for which the log p in “physchem” (pH 2.7) was found to be 1.91.

In turn, `O=C(Cc1ccncc1)c1ccc(Cl)s1` [1-(5-chloro-2-thienyl)-2-(pyridin-4-yl)ethanone] had a log p in “physchem” (pH 2.7) of 1.17.

Take `CCC(C)n1cc(-c2ccnc(Cl)c2)c(-c2ccc(Cl)s2)n1` (stereo not shown) [2-Chloro-4-[1-sec-butyl-3-(5-chloro-2-thienyl)-1H-pyrazol-4-yl]pyridine]: in the series “physchem” (pH 2.7), the log p came out at 4.9.

In the series “physchem” (pH 2.7), `CSc1nccc(-c2c[nH]nc2-c2ccc(Cl)s2)n1` [4-[3-(5-Chloro-2-thienyl)-1H-pyrazol-4-yl]-2-(methylsulfanyl)pyrimidine] yielded a log p of 2.78.

For `Clc1ccc(-c2n[nH]c(C3CC3)c2-c2ccncc2)s1` [4-[3-(5-Chloro-2-thienyl)-5-cyclopropyl-1H-pyrazol-4-yl]pyridine], the log p in the series “physchem” (pH 2.7) came out at 1.29.

Take `CCn1cc(I)c(-c2cccs2)n1` [1-Ethyl-4-iodo-3-(2-thienyl)-1H-pyrazole]: in the series “physchem” (pH 2.7), the log p came out at 3.13.

In turn, `CC(C)n1cc(-c2ccnc(S(C)(=O)=O)n2)c(-c2ccc(Cl)s2)n1` [4-[3-(5-Chloro-2-thienyl)-1-isopropyl-1H-pyrazol-4-yl]-2-(methylsulfonyl)pyrimidine] had a log p in the series “physchem” (pH 2.7) of 3.15.

Molecule `Cc1csc(-c2ccn(C)n2)c1` [1-Methyl-3-(4-methyl-2-thienyl)-1H-pyrazole] registered a log p in “physchem” (pH 2.7) of 2.14.

`CCC(C)n1ccc(-c2cc(C)cs2)n1` (stereo not shown) [1-sec-Butyl-3-(4-methyl-2-thienyl)-1H-pyrazole] came in with a log p in the series “physchem” (pH 2.7) of 3.63.

With `CCC(=O)Nc1cc(-c2cn(CC)nc2-c2cccs2)ccn1` [Example 149, N-{4-[1-Ethyl-3-(2-thienyl)-1H-pyrazol-4-yl]pyridin-2-yl}propanamide], the chromatographic logP came to 1.65 in “physchem” (pH 2.7) and 2.26 in the series “physchem” (pH 7.8).

`CN(C)C=CC(=O)c1cc(Cl)cs1` [1-(4-Chloro-2-thienyl)-3-(dimethylamino)prop-2-en-1-one] gave a log p in “physchem” (pH 2.7) of 1.86.

As to `CN(C)C=CC(=O)c1cc(Br)c(Br)s1` [1-(4,5-Dibromo-2-thienyl)-3-(dimethylamino)prop-2-en-1-one], the log p in the series “physchem” (pH 2.7) amounted to 2.68.

`CC(C)n1cc(-c2ccncc2)c(-c2ccc(F)s2)n1` [4-[1-Isopropyl-3-(5-fluoro-2-thienyl)-1H-pyrazol-4-yl]pyridine] yielded a log p in “physchem” (pH 2.7) of 1.53.

For `CCCn1cc(I)c(-c2cccs2)n1` [4-Iodo-1-propyl-3-(2-thienyl)-1H-pyrazole], the log p in “physchem” (pH 2.7) was 3.65.

In the case of `CCn1ccc(-c2cccs2)n1` [1-Ethyl-3-(2-thienyl)-1H-pyrazole], the log p in the series “physchem” (pH 2.7) stood at 2.14.

In turn, `CC(C)n1ncc(I)c1-c1cccs1` [4-Iodo-1-isopropyl-5-(2-thienyl)-1H-pyrazole] showed a log p in the series “physchem” (pH 2.7) of 3.66.

In the case of `CSc1nccc(-c2cn(C(C)C)nc2-c2ccc(Cl)s2)n1` [4-[3-(5-Chloro-2-thienyl)-1-isopropyl-1H-pyrazol-4-yl]-2-(methylsulfanyl)pyrimidine], the log p in the series “physchem” (pH 2.7) came out at 4.44.

In “physchem” (pH 2.7), `CC(=O)N(C(C)=O)c1nccc(-c2cn(C(C)C)nc2-c2ccc(Cl)s2)n1` [N-Acetyl-N-{4-[3-(5-chloro-2-thienyl)-1-isopropyl-1H-pyrazol-4-yl]pyrimidin-2-yl}acetamide] gave a log p of 3.33.

Regarding `CCC(C)n1cc(I)c(-c2cc(C)cs2)n1` (stereo not shown) [1-sec-Butyl-4-iodo-3-(4-methyl-2-thienyl)-1H-pyrazole], the log p in “physchem” (pH 2.7) came out at 4.79.
